One assay has as its system CAL-27. The assay can be described thus: Potentiation of cisplatin-induced apoptosis in human CAL27 cells assessed as accumulation at sub-G1 phase at 0.5 uM preincubated for 48 hrs followed by cisplatin addition and further incubation for 24 hrs by propidium iodide staining based flow cytometry (reference value: 11.5 +/- 0.89%). The class given is functional.
The species named for another assay is Homo sapiens. The assay can be described thus: Induction of apoptosis in human Cal27CisR cells assessed as accumulation at sub-G1 phase at 1 uM after 48 hrs by propidium iodide staining based flow cytometry. The assay is classed as functional, cell-based. For orientation: A flow cytometer gives signals particle by particle.
The nature of assay [1]: Potentiation of cisplatin-induced cytotoxicity in human Cal27CisR cells assessed as fold reduction in cisplatin IC50 at 1 uM preincubated for 48 hrs followed by cisplatin addition and further incubation for 72 hrs by MTT assay relative to cisplatin alone. The assay is classed as functional. On the technique in general: Formazan colour is commonly taken as a measure of viable cells.

A further assay has as its target T1, Histone deacetylase 8 (Homo sapiens, UniProt Q9BY41).
T1 sequence (Q9BY41 whole entry): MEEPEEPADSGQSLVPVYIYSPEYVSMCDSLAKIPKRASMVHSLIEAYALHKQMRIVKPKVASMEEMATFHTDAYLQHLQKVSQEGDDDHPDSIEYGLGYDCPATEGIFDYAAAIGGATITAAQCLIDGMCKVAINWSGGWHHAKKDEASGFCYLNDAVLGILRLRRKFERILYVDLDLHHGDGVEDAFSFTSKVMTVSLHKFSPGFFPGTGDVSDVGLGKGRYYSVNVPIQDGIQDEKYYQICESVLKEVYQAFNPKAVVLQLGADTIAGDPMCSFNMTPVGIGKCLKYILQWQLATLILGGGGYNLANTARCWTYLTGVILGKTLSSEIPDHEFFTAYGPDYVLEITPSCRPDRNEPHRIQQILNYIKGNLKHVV
The assay can be described thus: Inhibition of C-terminal His-fusion tagged/N-terminal Strep-2 tagged recombinant human HDAC8 (1 to 377 residues) expressed in insect cells using Boc-Lys(TFa)-AMC as substrate preincubated for 5 mins followed by substrate addition and further incubation for 90 mins measured after 15 mins by microplate reader based fluorescence assay.

The subject of another assay is A2780. The assay can be described thus: Antiproliferative activity against human A2780 cells after 72 hrs by microplate reader based MTT assay. The assay is classed as functional, cell-based. The conditions noted are these: A2780, 72 h.

Activity calls are given as the source filed them. The calls are words filed in the database; no cut-off is given here.

For orientation: Ki means a measure of affinity in units of concentration, obtained from inhibition or displacement. By IC50 is commonly meant the concentration needed to halve the response being measured. Low values mean greater potency, high ones weaker potency. In the case of `O=C(/C=C/c1ccc(CONC(=O)c2ccc3ccccc3n2)cc1)NO`, the Activity in the assay on CAL-27 is 34.5%. The result in the assay listed under Homo sapiens was inactive. Further, the “Ratio IC50” value in assay [1] worked out at 6.86. Also, the Ki at Histone deacetylase 8 was 4700 nM. Also, the IC50 in the assay on A2780 is 790 nM.
The corresponding values for `COc1ccc(NC(=O)NOCc2ccc(/C=C/C(=O)NO)cc2)cc1` are 36.7%, “inactive”, 4.76, 4210 nM and 1150 nM.

The values above are taken from ChEMBL document CHEMBL4396934, “Novel α,β-unsaturated hydroxamic acid derivatives overcome cisplatin resistance” (Bioorg Med Chem, 2019).
